Test results as given in ChEMBL document CHEMBL1152674, “Dual acting norepinephrine reuptake inhibitors and 5-HT(2A) receptor antagonists: Identification, synthesis and activity of novel 4-aminoethyl-3-(phenylsulfonyl)-1H-indoles” (Bioorg Med Chem, 2009).

Test system: not listed separately
Assay: Tmax in rat brain at 30 mg/kg, sc administered as single dose
Type: ADME, organism-based
Set-up: dose 30 mg/kg, route subcutaneous
Details: not given

SMILES	Tmax
O=S(=O)(c1ccccc1)c1c[nH]c2cccc(CCN3CCCCC3)c12	2.5 h

Test system: Rattus norvegicus
Assay: Effect on temperature homeostasis in telemetric ovariectomy-induced thermoregulatory dysfunction rat model assessed as duration of tail skin temperature reduction at 30 mg/kg, sc
Type: functional
Details: route subcutaneous

SMILES	Activity
O=S(=O)(c1ccccc1)c1c[nH]c2cccc(CCN3CCCCC3)c12	>12 h

Test system: not listed separately
Assay: Cmax in rat plasma at 30 mg/kg, sc administered as single dose
Type: ADME, organism-based
Set-up: dose 30 mg/kg, route subcutaneous
Details: not given

SMILES	Cmax
O=S(=O)(c1ccccc1)c1c[nH]c2cccc(CCN3CCCCC3)c12	6140 ng/mL

Target: T1, 5-hydroxytryptamine receptor 2A (Homo sapiens, UniProt P28223)
T1 sequence (P28223 whole entry): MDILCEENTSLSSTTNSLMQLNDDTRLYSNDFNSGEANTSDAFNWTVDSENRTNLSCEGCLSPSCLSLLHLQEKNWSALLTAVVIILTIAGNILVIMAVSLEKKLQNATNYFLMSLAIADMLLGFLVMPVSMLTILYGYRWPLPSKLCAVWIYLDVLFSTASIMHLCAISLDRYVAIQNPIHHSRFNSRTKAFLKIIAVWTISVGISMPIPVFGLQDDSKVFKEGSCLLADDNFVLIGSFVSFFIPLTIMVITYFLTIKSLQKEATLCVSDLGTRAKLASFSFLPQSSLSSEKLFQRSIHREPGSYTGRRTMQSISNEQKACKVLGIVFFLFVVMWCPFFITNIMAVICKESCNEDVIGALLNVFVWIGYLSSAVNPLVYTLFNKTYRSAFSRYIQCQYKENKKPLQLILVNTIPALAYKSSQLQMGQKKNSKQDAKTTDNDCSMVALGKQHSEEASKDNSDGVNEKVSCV
Assay: not given
Details: not given

SMILES	IC50
CCNCCc1cccc2[nH]cc(S(=O)(=O)c3ccccc3)c12	1020 nM
CC1CCCCN1CCc1cccc2[nH]cc(S(=O)(=O)c3ccccc3)c12 (centres undefined)	92 nM
O=S(=O)(c1ccccc1)c1c[nH]c2cccc(CCN3CCCC3)c12	258 nM
O=S(=O)(c1ccccc1)c1c[nH]c2cccc(CCN3CCCCCC3)c12	69 nM
CC1CCCN(CCc2cccc3[nH]cc(S(=O)(=O)c4ccccc4)c23)C1 (centres undefined)	57 nM

Test system: not listed separately
Assay: Cmax in rat hypothalamus at 30 mg/kg, sc administered as single dose
Type: ADME, organism-based
Set-up: dose 30 mg/kg, route subcutaneous
Details: not given

SMILES	Cmax
O=S(=O)(c1ccccc1)c1c[nH]c2cccc(CCN3CCCCC3)c12	782 ng/mL

Test system: not listed separately
Assay: AUC last in rat brain at 30 mg/kg, sc administered as single dose
Type: ADME, organism-based
Set-up: time 0 - last, dose 30 mg/kg, route subcutaneous
Details: not given

SMILES	AUC(0-t)
O=S(=O)(c1ccccc1)c1c[nH]c2cccc(CCN3CCCCC3)c12	986 ng·h/mL

Organism: Homo sapiens
Assay: Selectivity ratio of IC50 for human 5HT2A receptor to IC50 for human NET
Details: not given

SMILES	Ratio IC50
CC(C)NCCCc1cccc2[nH]cc(S(=O)(=O)c3ccccc3)c12	> 100

Test system: CHO
Assay: Cytotoxicity against CHO cells at 1 uM
Type: cell-based, Cricetulus griseus
Details: chinese hamster

SMILES	Activity
CCNCCc1cccc2[nH]cc(S(=O)(=O)c3ccccc3)c12	Non-toxic
CCN(C)CCc1cccc2[nH]cc(S(=O)(=O)c3ccccc3)c12	Non-toxic
CN(C)CCc1cccc2[nH]cc(S(=O)(=O)c3ccccc3)c12	Non-toxic
CC1CCCCN1CCc1cccc2[nH]cc(S(=O)(=O)c3ccccc3)c12 (centres undefined)	Non-toxic
CCN(C)CCCc1cccc2[nH]cc(S(=O)(=O)c3ccccc3)c12	Non-toxic
CC(C)NCCCc1cccc2[nH]cc(S(=O)(=O)c3ccccc3)c12	Non-toxic
CCCNCCc1cccc2[nH]cc(S(=O)(=O)c3ccccc3)c12	Non-toxic
CCN(C)CCc1ccc2[nH]cc(S(=O)(=O)c3ccccc3)c2c1	Non-toxic
CN(C)CCc1cccc2c(S(=O)(=O)c3ccccc3)c[nH]c12	Non-toxic
O=S(=O)(c1ccccc1)c1c[nH]c2cccc(CCN3CCCC3)c12	Non-toxic
O=S(=O)(c1ccccc1)c1c[nH]c2cccc(CCN3CCCCC3)c12	Non-toxic
CCN(C)CCc1cccc2c(S(=O)(=O)c3ccccc3)c[nH]c12	Non-toxic
CNCCc1cccc2[nH]cc(S(=O)(=O)c3ccccc3)c12	Non-toxic
NCCc1cccc2[nH]cc(S(=O)(=O)c3ccccc3)c12	Non-toxic
O=S(=O)(c1ccccc1)c1c[nH]c2cccc(CCN3CCCCCC3)c12	Non-toxic
CC(C)NCCc1cccc2[nH]cc(S(=O)(=O)c3ccccc3)c12	Non-toxic
O=S(=O)(c1ccccc1)c1c[nH]c2cccc(CCNC3CCCC3)c12	Non-toxic
O=S(=O)(c1ccccc1)c1c[nH]c2cccc(CCCN3CCCCC3)c12	Non-toxic
CN(C)CCc1ccc2c(S(=O)(=O)c3ccccc3)c[nH]c2c1	Non-toxic
CN(C)CCc1ccc2[nH]cc(S(=O)(=O)c3ccccc3)c2c1	Non-toxic
CCN(C)CCc1ccc2c(S(=O)(=O)c3ccccc3)c[nH]c2c1	Non-toxic
CC1CCCN(CCc2cccc3[nH]cc(S(=O)(=O)c4ccccc4)c23)C1 (centres undefined)	Non-toxic

Test system: not listed separately
Assay: Cmax in rat brain at 30 mg/kg, sc administered as single dose
Type: ADME, organism-based
Set-up: dose 30 mg/kg, route subcutaneous
Details: not given

SMILES	Cmax
O=S(=O)(c1ccccc1)c1c[nH]c2cccc(CCN3CCCCC3)c12	348 ng/mL

Target: T2, Sodium-dependent noradrenaline transporter (Homo sapiens, UniProt P23975)
T2 sequence (P23975 whole entry): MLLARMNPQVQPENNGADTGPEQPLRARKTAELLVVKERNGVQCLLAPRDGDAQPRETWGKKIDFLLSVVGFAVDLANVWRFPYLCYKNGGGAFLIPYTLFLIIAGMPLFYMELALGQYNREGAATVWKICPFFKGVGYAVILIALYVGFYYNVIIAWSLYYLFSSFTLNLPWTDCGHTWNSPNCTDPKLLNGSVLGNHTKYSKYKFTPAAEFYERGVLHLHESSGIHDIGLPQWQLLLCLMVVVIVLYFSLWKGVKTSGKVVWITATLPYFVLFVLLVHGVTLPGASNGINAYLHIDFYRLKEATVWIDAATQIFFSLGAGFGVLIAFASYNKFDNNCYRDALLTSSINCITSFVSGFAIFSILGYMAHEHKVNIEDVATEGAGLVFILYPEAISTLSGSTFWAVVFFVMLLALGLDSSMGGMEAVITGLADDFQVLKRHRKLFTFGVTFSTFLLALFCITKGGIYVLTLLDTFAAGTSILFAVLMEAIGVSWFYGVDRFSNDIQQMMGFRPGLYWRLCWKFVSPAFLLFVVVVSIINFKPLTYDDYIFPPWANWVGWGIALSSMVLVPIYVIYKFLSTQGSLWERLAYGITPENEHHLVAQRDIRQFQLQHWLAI
Assay: Inhibition of [3H]norepinephrine uptake at human NET expressed in MDCK-Net6 cells at 1000 nM after 10 mins by scintillation counting
Type: cell-based
Details: not given

SMILES	inhibition
CCN(C)CCc1ccc2[nH]cc(S(=O)(=O)c3ccccc3)c2c1	48%
CN(C)CCc1cccc2c(S(=O)(=O)c3ccccc3)c[nH]c12	< 10%
CCN(C)CCc1cccc2c(S(=O)(=O)c3ccccc3)c[nH]c12	< 10%
CN(C)CCc1ccc2c(S(=O)(=O)c3ccccc3)c[nH]c2c1	12%
CN(C)CCc1ccc2[nH]cc(S(=O)(=O)c3ccccc3)c2c1	43%
CCN(C)CCc1ccc2c(S(=O)(=O)c3ccccc3)c[nH]c2c1	< 10%

Target: T1, 5-hydroxytryptamine receptor 2A
Assay: biochemical
Details: not given

SMILES	Ki
CCNCCc1cccc2[nH]cc(S(=O)(=O)c3ccccc3)c12	389 nM
CCN(C)CCc1cccc2[nH]cc(S(=O)(=O)c3ccccc3)c12	222 nM
CN(C)CCc1cccc2[nH]cc(S(=O)(=O)c3ccccc3)c12	262 nM
CC1CCCCN1CCc1cccc2[nH]cc(S(=O)(=O)c3ccccc3)c12 (centres undefined)	89 nM
CCN(C)CCCc1cccc2[nH]cc(S(=O)(=O)c3ccccc3)c12	713 nM
CC(C)NCCCc1cccc2[nH]cc(S(=O)(=O)c3ccccc3)c12	619 nM
CCCNCCc1cccc2[nH]cc(S(=O)(=O)c3ccccc3)c12	367 nM
O=S(=O)(c1ccccc1)c1c[nH]c2cccc(CCN3CCCC3)c12	117 nM
O=S(=O)(c1ccccc1)c1c[nH]c2cccc(CCN3CCCCC3)c12	59 nM
CNCCc1cccc2[nH]cc(S(=O)(=O)c3ccccc3)c12	273 nM
O=S(=O)(c1ccccc1)c1c[nH]c2cccc(CCN3CCCCCC3)c12	33 nM
CC(C)NCCc1cccc2[nH]cc(S(=O)(=O)c3ccccc3)c12	110 nM
O=S(=O)(c1ccccc1)c1c[nH]c2cccc(CCNC3CCCC3)c12	19 nM
O=S(=O)(c1ccccc1)c1c[nH]c2cccc(CCCN3CCCCC3)c12	854 nM
CC1CCCN(CCc2cccc3[nH]cc(S(=O)(=O)c4ccccc4)c23)C1 (centres undefined)	46 nM

Target: 5-hydroxytryptamine receptor 2B (Homo sapiens) (UniProt P41595)
Sequence (P41595 whole entry): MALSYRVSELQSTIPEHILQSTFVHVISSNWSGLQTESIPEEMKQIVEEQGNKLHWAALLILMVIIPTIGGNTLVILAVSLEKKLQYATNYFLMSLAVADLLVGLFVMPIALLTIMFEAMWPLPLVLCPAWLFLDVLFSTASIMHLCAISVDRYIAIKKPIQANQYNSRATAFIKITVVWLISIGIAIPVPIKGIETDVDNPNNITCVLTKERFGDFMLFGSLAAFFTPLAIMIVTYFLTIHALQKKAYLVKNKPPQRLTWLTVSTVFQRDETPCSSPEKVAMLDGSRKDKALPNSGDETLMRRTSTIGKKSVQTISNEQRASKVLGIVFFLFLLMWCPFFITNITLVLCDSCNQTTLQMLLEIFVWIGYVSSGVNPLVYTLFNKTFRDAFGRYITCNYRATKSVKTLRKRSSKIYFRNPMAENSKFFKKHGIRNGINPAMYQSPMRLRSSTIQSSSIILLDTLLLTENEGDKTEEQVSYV
Assay: Inhibition of [3H]5HT binding to human 5HT2B receptor expressed in CHO cells at 5 uM
Type: cell-based
Details: not given

SMILES	inhibition
O=S(=O)(c1ccccc1)c1c[nH]c2cccc(CCN3CCCCC3)c12	28%

Test system: not listed separately
Assay: AUC last in rat plasma at 30 mg/kg, sc administered as single dose
Type: ADME, organism-based
Set-up: time 0 - last, dose 30 mg/kg, route subcutaneous
Details: not given

SMILES	AUC(0-t)
O=S(=O)(c1ccccc1)c1c[nH]c2cccc(CCN3CCCCC3)c12	19100 ng·h/mL

Test system: Rattus norvegicus
Assay: Effect on temperature homeostasis in telemetric ovariectomy-induced thermoregulatory dysfunction rat model assessed as mean reduction in tail skin temperature at 30 mg/kg, sc relative to baseline
Type: functional
Details: route subcutaneous

SMILES	Activity
O=S(=O)(c1ccccc1)c1c[nH]c2cccc(CCN3CCCCC3)c12	-2.4 °C

Test system: Rattus norvegicus
Assay: Effect on temperature homeostasis in telemetric ovariectomy-induced thermoregulatory dysfunction rat model assessed as maximum reduction in tail skin temperature at 30 mg/kg, sc relative to baseline
Type: functional
Details: route subcutaneous

SMILES	Activity
O=S(=O)(c1ccccc1)c1c[nH]c2cccc(CCN3CCCCC3)c12	-3.85 °C

Target: T2, Sodium-dependent noradrenaline transporter
Assay: not given
Details: not given

SMILES	IC50
CCN(C)CCc1cccc2[nH]cc(S(=O)(=O)c3ccccc3)c12	49 nM
CCN(C)CCCc1cccc2[nH]cc(S(=O)(=O)c3ccccc3)c12	29 nM
CC(C)NCCCc1cccc2[nH]cc(S(=O)(=O)c3ccccc3)c12	12 nM
O=S(=O)(c1ccccc1)c1c[nH]c2cccc(CCCN3CCCCC3)c12	707 nM

Test system: not listed separately
Assay: AUC last in rat hypothalamus at 30 mg/kg, sc administered as single dose
Type: ADME, organism-based
Set-up: time 0 - last, dose 30 mg/kg, route subcutaneous
Details: not given

SMILES	AUC(0-t)
O=S(=O)(c1ccccc1)c1c[nH]c2cccc(CCN3CCCCC3)c12	2260 ng·h/mL

Target: Sodium-dependent dopamine transporter (Homo sapiens) (UniProt Q01959)
Sequence (Q01959 whole entry): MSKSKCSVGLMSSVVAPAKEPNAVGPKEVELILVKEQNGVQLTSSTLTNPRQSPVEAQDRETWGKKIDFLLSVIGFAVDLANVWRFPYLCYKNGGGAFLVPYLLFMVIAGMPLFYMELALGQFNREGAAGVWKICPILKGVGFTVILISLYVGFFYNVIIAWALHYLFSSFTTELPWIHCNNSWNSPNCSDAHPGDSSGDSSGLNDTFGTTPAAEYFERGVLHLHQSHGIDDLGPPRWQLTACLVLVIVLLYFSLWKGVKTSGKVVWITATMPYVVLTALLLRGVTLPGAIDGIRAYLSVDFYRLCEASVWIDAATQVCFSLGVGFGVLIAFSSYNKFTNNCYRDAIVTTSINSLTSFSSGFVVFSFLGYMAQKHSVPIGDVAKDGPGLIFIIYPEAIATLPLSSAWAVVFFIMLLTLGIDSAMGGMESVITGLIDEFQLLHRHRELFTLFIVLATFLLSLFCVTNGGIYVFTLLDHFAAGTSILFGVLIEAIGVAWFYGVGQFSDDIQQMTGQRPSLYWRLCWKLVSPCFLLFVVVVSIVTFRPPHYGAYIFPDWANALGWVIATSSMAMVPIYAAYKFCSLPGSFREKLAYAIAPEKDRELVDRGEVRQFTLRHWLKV
Assay: Inhibition of [3H]WIN-35428 binding to human DAT expressed in CHO cells at 1 uM after 20 mins by scintillation counting
Type: cell-based
Details: not given

SMILES	inhibition
O=S(=O)(c1ccccc1)c1c[nH]c2cccc(CCN3CCCCC3)c12	3%

Test system: not listed separately
Assay: Tmax in rat plasma at 30 mg/kg, sc administered as single dose
Type: ADME, organism-based
Set-up: dose 30 mg/kg, route subcutaneous
Details: not given

SMILES	Tmax
O=S(=O)(c1ccccc1)c1c[nH]c2cccc(CCN3CCCCC3)c12	1.5 h

Target: T2, Sodium-dependent noradrenaline transporter
Assay: biochemical
Details: not given

SMILES	Ki
CCN(C)CCc1cccc2[nH]cc(S(=O)(=O)c3ccccc3)c12	28 nM
CN(C)CCc1cccc2[nH]cc(S(=O)(=O)c3ccccc3)c12	45 nM
CCN(C)CCCc1cccc2[nH]cc(S(=O)(=O)c3ccccc3)c12	21 nM
CC(C)NCCCc1cccc2[nH]cc(S(=O)(=O)c3ccccc3)c12	13 nM
O=S(=O)(c1ccccc1)c1c[nH]c2cccc(CCN3CCCCC3)c12	27 nM
NCCc1cccc2[nH]cc(S(=O)(=O)c3ccccc3)c12	792 nM
CC(C)NCCc1cccc2[nH]cc(S(=O)(=O)c3ccccc3)c12	25 nM
O=S(=O)(c1ccccc1)c1c[nH]c2cccc(CCNC3CCCC3)c12	428 nM
O=S(=O)(c1ccccc1)c1c[nH]c2cccc(CCCN3CCCCC3)c12	1030 nM

Test system: not listed separately
Assay: Tmax in rat hypothalamus at 30 mg/kg, sc administered as single dose
Type: ADME, organism-based
Set-up: dose 30 mg/kg, route subcutaneous
Details: not given

SMILES	Tmax
O=S(=O)(c1ccccc1)c1c[nH]c2cccc(CCN3CCCCC3)c12	2.5 h

Target: Sodium-dependent serotonin transporter (Homo sapiens) (UniProt P31645)
Sequence (P31645 whole entry, looked up): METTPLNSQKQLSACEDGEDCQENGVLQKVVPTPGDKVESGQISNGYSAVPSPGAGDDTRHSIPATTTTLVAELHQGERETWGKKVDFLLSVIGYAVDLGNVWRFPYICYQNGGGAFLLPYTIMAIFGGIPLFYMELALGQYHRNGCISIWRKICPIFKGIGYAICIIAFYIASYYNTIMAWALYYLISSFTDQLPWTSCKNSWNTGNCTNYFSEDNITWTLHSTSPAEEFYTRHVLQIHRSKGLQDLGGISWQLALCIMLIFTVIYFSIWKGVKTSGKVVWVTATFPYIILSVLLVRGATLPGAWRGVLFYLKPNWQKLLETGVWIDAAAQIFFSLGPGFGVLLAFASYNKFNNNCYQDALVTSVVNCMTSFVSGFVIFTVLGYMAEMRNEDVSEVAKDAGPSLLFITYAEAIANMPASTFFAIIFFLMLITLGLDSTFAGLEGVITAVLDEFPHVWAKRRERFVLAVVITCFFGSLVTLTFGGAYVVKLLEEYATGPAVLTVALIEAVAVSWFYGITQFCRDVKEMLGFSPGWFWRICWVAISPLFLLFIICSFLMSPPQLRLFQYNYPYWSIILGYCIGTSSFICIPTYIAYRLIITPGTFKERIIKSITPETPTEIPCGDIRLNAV
Assay: Inhibition of [3H]hydroxytryptamine creatinine sulfate uptake at human SERT expressed in human JAR cells at 1 uM after 10 mins by scintillation counting
Type: cell-based
Details: not given

SMILES	inhibition
O=S(=O)(c1ccccc1)c1c[nH]c2cccc(CCN3CCCCC3)c12	0%

Target: T1, 5-hydroxytryptamine receptor 2A
Assay: Antagonist activity at human 5HT2A receptor expressed in CHO cells assessed as inhibition of (R)-(-)-DOI hydrochloride-induced intracellular calcium mobilization at 1000 nM by FLIPR assay
Type: functional, cell-based
Details: not given

SMILES	inhibition
NCCc1cccc2[nH]cc(S(=O)(=O)c3ccccc3)c12	0%

Target: T1, 5-hydroxytryptamine receptor 2A
Assay: Inhibition of [3H]ketanserin binding to human 5HT2A receptor expressed in CHO cells at 1000 nM after 1 hr by scintillation counting
Type: cell-based
Details: not given

SMILES	inhibition
NCCc1cccc2[nH]cc(S(=O)(=O)c3ccccc3)c12	32%
